This passage reports Kd results from publication PMC3901029 (Biochemical and biophysical research communications, 2013).

The structures appear in SMILES notation.

For this assay, the target named is MJ (MJ0796-G174W-G14C, single-Cys mutant based on Cys-less MJ0796; isolated nucleotide-binding domain) (Methanocaldococcus jannaschii, UniProt Q58206, C128I/C53G/G14C/G174W/K44A). The experiment in a line: Trp174 fluorescence quenching.
Sequence of MJ (MJ0796-G174W-G14C, single-Cys mutant based on Cys-less MJ0796; isolated nucleotide-binding domain) (Q58206 whole entry G14C/K44A/C53G/C128I/G174W, the tested form may be a part): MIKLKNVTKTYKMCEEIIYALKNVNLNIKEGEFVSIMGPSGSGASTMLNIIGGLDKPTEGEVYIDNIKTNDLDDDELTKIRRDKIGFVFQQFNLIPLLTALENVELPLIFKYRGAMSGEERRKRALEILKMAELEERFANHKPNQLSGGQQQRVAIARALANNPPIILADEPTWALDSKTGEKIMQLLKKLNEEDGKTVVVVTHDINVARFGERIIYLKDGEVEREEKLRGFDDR

On to `Nc1ncnc2c1ncn2[C@@H]1O[C@H](COP(=O)(O)OP(=O)(O)OP(=O)(O)O)[C@@H](O)[C@H]1O` [ATP], for which the affinity, expressed as Kd, was 70 ± 13 µM.
